The results in this text go back to patent US9133230B2, “Hydrazone derivatives having potent antitumor activity toward multi-drug resistant tumor cells” (THE UNITED STATES OF AMERICA AS REPRESENTED BY THE …, priority 2011, dated 2015).

Type in all cases: cell-based
In experiment [1] the test system is human myelogenous leukemia K562. The experiment in a line: MTS cytotoxicity assay, K562. The note with it: Homo sapiens, K562, 48 h incubation. How it is done:
(§1) In order to obtain information about the growth-inhibiting action of hydrazones reported in the present invention on tumor cells, growth inhibition was assessed for the following human tumor cell lines: human myelogenous leukemia K562, human cervical adenocarcinoma HeLa, human colon adenocarcinoma Caco-2, human colon carcinoma HT-29, human colon carcinoma HCT-15, and human breast carcinoma MCF-7.
(§2) The K562, HeLa, HT-29, HCT-15, Caco-2, and MCF-7 cell lines were obtained from the American type Culture Collection (ATCC, Manassas, Va.). K562 cells were maintained in RPMI 1640 medium (Gibco/Life Technologies, Gaithersburg, Md.) containing 10% heat-inactivated fetal bovine serum (FBS) (Atlanta Biologicals, Atlanta, Ga.) and 10000 U/L penicillin and 50 mg/L streptomycin. HeLa, HT-29, HCT-15, Caco-2 and MCF-7 cells were maintained in MEM with Earl's balanced salts, 10% FBS, penicillin, and streptomycin as above. Logarithmically growing HT-29, Caco-2, and MCF-7 cells were incubated with 0.05% trypsin containing 1 mM EDTA at 37° C. for about 5 min until cells were nonadherent and formed a single cell suspension. Trypsin activity was neutralized by adding 20-fold excess of the serum-containing medium. Cells were cultured at 37° C. in an atmosphere of air and 5% CO2.
(§3) Cytotoxicity assays were conducted by tetrazolium reduction of 3-(4,5-dimethylthiazol-2-yl)-5-(3-carboxymethoxyphenyl)-2-(4-sulfophenyl)-2H-tetrazolium (MTS) with N-methylphenazonium methyl sulfate (PMS) (CellTiter Assay, Promega, Madison, Wis.). Logarithmically growing cells were plated in 0.1 mL aliquots in 96-well microtiter plates. Cells were plated at an initial density of about 5000 cells/mL and allowed to acclimatize for 24 h. Cell suspensions were treated with various dilutions of compounds in triplicate, mixed well, and allowed to incubate for 48 h at 37° C. in an atmosphere of air and 5% CO2. To the cell suspension was added 20 μL of tetrazolium reagent, the mixture was incubated for 2 h at 37° C. in an atmosphere of air and 5% CO2, and absorbance at 490 nm was read by microplate reader. Control plates with serial dilutions of cell types were counted as a control for the assay. In all cases, controls indicated a linear response versus cell number, R^2≧0.99.
(Tetrazolium assays rely on reduction of a dye to a coloured formazan, in cell work by metabolically active cells.)

For experiment [2], the system named is human cervical adenocarcinoma HeLa. The experiment in a line: MTS cytotoxicity assay, HeLa. To be noted: Homo sapiens, HeLa, 48 h incubation. How it is done: as §1, §2, §3
For experiment [3], the system named is human colon carcinoma HT-29. The experiment in a line: MTS cytotoxicity assay, HT-29. To be noted: Homo sapiens, HT-29, 48 h incubation. How it is done:
as §1, §2, §3

For experiment [4], the system named is human colon carcinoma HCT-15. The experiment in a line: MTS cytotoxicity assay, HCT-15. To be noted: Homo sapiens, HCT-15, 48 h incubation. How it is done:
as §1, §2, §3

In experiment [5] the test system is human colon adenocarcinoma Caco-2. The experiment in a line: MTS cytotoxicity assay, Caco-2. To be noted: Homo sapiens, Caco-2, 48 h incubation. As to the method:
as §1, §2, §3

Experiment [6] concerns human breast carcinoma MCF-7. The experiment in a line: MTS cytotoxicity assay, MCF-7. To be noted: Homo sapiens, MCF7, 48 h incubation. As to the method:
as §1, §2, §3

The next experiment has as its system leukemia cell lines. The experiment in a line: NCI 60 human tumor cell line screen, leukemia. To be noted: Homo sapiens, arithmetic mean of two to nine cancer cell lines, read-out: Inhibitory concentration GI50, leukemia. The source says:
(§4) Selected compounds were submitted for testing in the organ-specific panel of human tumor cell lines at the National Cancer Institute, Bethesda, Md. This screen utilized 60 human tumor cell lines, representing leukemia, melanoma, and cancers of the lung, colon, brain, ovary, kidney, prostate, and breast (Boyd, M. R., “Status of the NCl preclinical antitumor drug discovery screen”. In Principles and practice of oncology updates; De Vita, V. T., Jr. Hellman, S., Rosenberg, S. A., Eds.; Lippincott: Philadelphia, Pa., 1989; Vol. 3, pp 1-12).
(§5) The MG MID value is the average of the GI50 values for all the cell lines tested for drug concentrations in the range of 10^−4-10^−8 M (See website domain: dtp.nci.nih.gov/dtp).

Experiment [7] concerns nonsmall cell lung cancer cell lines. The experiment in a line: NCI 60 human tumor cell line screen, NSCL. The note with it: Homo sapiens, arithmetic mean of two to nine cancer cell lines, read-out: Inhibitory concentration GI50, NSCL.
Text: as §4, §5

In a further experiment the test system is melanoma cell lines. The experiment in a line: NCI 60 human tumor cell line screen, melanoma. To be noted: Homo sapiens, arithmetic mean of two to nine cancer cell lines, read-out: Inhibitory concentration GI50, melanoma.
Text: as §4, §5

Experiment [8] has as its system ovarian cancer cell lines. The experiment in a line: NCI 60 human tumor cell line screen, ovarian. The note with it: Homo sapiens, arithmetic mean of two to nine cancer cell lines, read-out: Inhibitory concentration GI50, ovarian.
Text: as §4, §5

Another experiment relates to HL60-VCR. Put plainly: MTS cytotoxicity on MDR tumor cells, HL60-VCR. The note with it: HL60/VCR, Vincristine (VCR) resistant, 72 hr incubation.
Experiment [9] has as its system human colorectal carcinoma HT29. Put plainly: Western blot of signal transduction pathways in HT29 cells. The note with it: HT29, IC50 dose. As to the method: The newly synthesized hydrazones RPC038, RPC042, and RPC046 had shown anti-tumor activity against 60 human cancer cell lines panel of the National Cancer Institute and on multi-drug resistant cell lines. The present studies were conducted to evaluate their action on signal transduction pathways in human colorectal carcinoma HT29. All the three compounds were examined at their IC50 doses.
Human colorectal carcinoma HT29 cells were obtained from the National Cancer Institute, Bethesda, Md., USA, and maintained in 5% CO2 at 37° C. in minimum essential media (Life Technologies, Inc., Grand Island, N.Y., USA) supplemented with 1% penicillin, streptomycin (Invitrogen, Carlsbad, Calif., USA), and 10% fetal bovine serum for optimal growth. HT29 cells (1×10^6) were plated in […], and 24 h later, fresh media was added and treated with the RPC038, RPC042 and RPC046 for indicated time points (2, 4, 8, 16 and 24 h). The cells were then washed with cold phosphate buffered saline (PBS) and taken in 1 ml PBS on ice and centrifuged at 4° C. The pellet was resuspended in appropriate volumes of radio immunoprecipitation assay buffer with protease inhibitor, kept on ice for 45 min and subsequently centrifuged at 4° C. An aliquot of supernatant (protein extract) was used to estimate the protein concentration. An aliquot of protein extract (40 μg) was subjected to Western blot analysis on a 12% polyacrylamide gel and transferred to nitrocellulose membrane. Blots were blocked, incubated with primary anti-pMEK, pERK, pJNK, pcjun, ERK, JNK, Cjun, Caspase-8, Caspase-6, PARP cleavage, or GAPDH antibodies (Cell Signaling Technology, Danvers, Mass.) and then conjugated with a secondary anti-mouse or an anti-rabbit horseradish […] antibody, and detected by ChemiDoc™ XRS+ System with Image Lab™ Software.
On the technique in general: A western blot detects proteins with antibodies after separation by electrophoresis.

The test system is the same in experiment [10]. The experiment is described as above. To be noted: HT29, IC50 dose. This is another data set of the same source.

For the compound `C(=NNc1ncnc2[nH]cnc12)c1ccccn1` [I-18, 6-(2-(Pyridin-2-ylmethylene)hydrazinyl)-9H-purine], the GI50 turned out to be 2300 nM in experiment [1]; 1900 nM in experiment [2]; 3500 nM in [3]; 2000 nM in experiment [4]; 2200 nM in experiment [5]; 3200 nM in experiment [6]. The GI50 was found to be 966 nM in the experiment on leukemia cell lines; 1230 nM in [7]; 753 nM in the experiment on melanoma cell lines; 629 nM in experiment [8]; 700 nM in the experiment on HL60-VCR. Further, the “phosphorylation of ERK (time)” value in experiment [9] (Western blot pERK) worked out at 4 h. Also, in [9] (Western blot pJNK (results not shown)), the “phosphorylation of JNK” value was “without phosphorylation of JNK”. Moreover, the “MEK activation (time)” value in [9] (Western blot pMEK) turned out to be 2 h. In addition, the “activation of cjun (time)” value in experiment [9] (Western blot pcjun) is reported as 6 h. The Caspase activation entry in experiment [9] (initial studies) was “Caspase-3 activation through Caspase-6 and not through Caspase-8”. Besides, in experiment [10], the “Activation of NFkB (p50)” value is listed as “observed”.
